Data reported in patent US12358859B2, “Series of compounds for treatment of skin diseases and other conditions” (Unigen, Inc., priority 2018, dated 2025).
Blank lines part the entries; values can stand above or below the compound they belong to.

What was measured:
[1] = test system: murine melanoma cells B16-F1; assay: Cell viability, tetrazolium reduction assay; type: cell-based
Experimental: All test compounds were initially dissolved in 100% DMSO at a concentration of 400 mM. Then, 6 μL of 400 mM test compounds were added to 1.2 mL of the cell growth media giving a final concentration of 2 mM for the test compound and concentration of 0.5% for DMSO. The compounds were centrifuged for 1 h at 20,000×g. Supernatants (1 mL) were collected and filtered through sterile 0.2 μm filters. The compounds were serially diluted in two-fold increments in the sterile cell growth media supplemented with 0.5% DMSO, thus keeping the concentration of DMSO constant for all samples. These serially diluted compounds were subsequently used as two-fold concentrated stock solutions in the melanin production and cell viability assays. Equal volumes of 2× compounds were mixed with media containing 2 nM α-MSH to give a final concentration of 1 nM α-MSH, 0.5% DMSO, and 1× concentration of test compounds.
Viability of cells was measured using standard tetrazolium reduction assay based on redox potential of live cells. Cells were seeded in a clear-bottom 96-well plate in RPMI 1640 media with Glutamax (Fisher Scientific, cat #61870036) at a density of 5,000 cells/well. Cells were treated with test compounds dissolved in 100 μL RPMI 1640 media and incubated for 48 hours at 37° C. in a humidified atmosphere of 95% air and 5% CO2.
After incubation, 20 μL of Aqueous One Solution were added to each well and the plate was returned to the incubator for 30 minutes. Conversion of tetrazolium was monitored by measuring absorbance of cell wells at 492 nm using a TECAN Genios plate reader.
More than 90% percent of the melanin produced by cultured melanoma cells is found in extra-cellular media. Therefore, at the end of the experiment melanin-containing media was collected and relative amounts of melanin were determined by absorption at 492 nm. Viability of cells was determined by a commonly used colorimetric procedure that is based on conversion of the tetrazolium compounds to colored formazan products (using Promega's CellTiter96 AqueousOne assay). Dehydrogenase enzymes in metabolically active cells accomplish this conversion, and the amount of formazan product is directly proportional to the number of living cells in culture. Mean (n=2) absorption of wells containing no cells was subtracted as blanks. The results were computed as percent of wells that contained the cells but no test compounds.

[2] = target: T1, COX-1 (Ovis aries, UniProt P05979); assay: COX-1 enzymatic inhibition assay; type: biochemical; details: for IC50: read-out: Anti-inflammatory (IC50) COX-1
T1 construct: purchased Cayman Chemical 701050
T1 sequence (P05979 25-600): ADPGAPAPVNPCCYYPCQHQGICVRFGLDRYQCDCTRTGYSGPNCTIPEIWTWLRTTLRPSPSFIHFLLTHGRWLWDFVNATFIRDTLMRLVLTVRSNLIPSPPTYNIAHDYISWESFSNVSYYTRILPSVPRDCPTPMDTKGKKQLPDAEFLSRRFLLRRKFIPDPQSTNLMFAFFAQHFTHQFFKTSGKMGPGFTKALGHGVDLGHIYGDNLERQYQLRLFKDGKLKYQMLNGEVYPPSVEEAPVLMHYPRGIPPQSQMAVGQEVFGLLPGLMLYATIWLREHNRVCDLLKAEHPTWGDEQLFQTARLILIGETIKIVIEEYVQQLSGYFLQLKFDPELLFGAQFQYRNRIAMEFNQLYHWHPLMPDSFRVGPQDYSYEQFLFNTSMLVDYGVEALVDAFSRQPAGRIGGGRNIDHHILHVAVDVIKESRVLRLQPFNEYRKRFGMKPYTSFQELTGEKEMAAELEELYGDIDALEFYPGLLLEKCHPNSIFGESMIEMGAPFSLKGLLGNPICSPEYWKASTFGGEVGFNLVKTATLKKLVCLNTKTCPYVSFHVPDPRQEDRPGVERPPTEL
Experimental: (§1) In order to screen for compounds that inhibited COX-1 and Cox-2 activity, enzymatic inhibition assay kits were purchased from Cayman Chemical (cat #701050). Briefly, the compound being examined was treated against a fixed amount of COX-1 and COX-2 enzymes. A cleavable, peroxide chromophore was included in the assay to visualize the peroxidase activity of each enzyme in presence of arachidonic acid as […]. Typically, assays were performed in 96-well format. Each inhibitor, taken from a 1 M stock solution in 100% DMSO, was tested in duplicate at room temperature using the following range of concentrations: 1.9, 3.9, 7.8, 15.6, 31.2, 62.5, 125, 250, 500, and 1000 μM. To each well, 150 μL of Assay Buffer was added along with 10 μL of Hemin, 10 μL of inhibitor diluted in DMSO and 10 μL of either COX-1 or COX-2 enzyme. The compounds were incubated for 5 minutes at room temperature, followed by the addition of 20 μL of Colormietric Substrate solution and 20 μL of arachidonic acid solution to initiate the reaction. The plate was mixed and incubated for 2 minutes before reading the absorbance at 590 nm. The inhibitor concentration vs. % of inhibition was plotted and the IC50 determined.

[3] = target: T2, COX-2 (Homo sapiens, UniProt P35354); assay: COX-2 enzymatic inhibition assay; type: biochemical; details: for IC50: read-out: Anti-inflammatory (IC50) COX-2
T2 construct: purchased Cayman Chemical 701050
T2 sequence (P35354 18-604): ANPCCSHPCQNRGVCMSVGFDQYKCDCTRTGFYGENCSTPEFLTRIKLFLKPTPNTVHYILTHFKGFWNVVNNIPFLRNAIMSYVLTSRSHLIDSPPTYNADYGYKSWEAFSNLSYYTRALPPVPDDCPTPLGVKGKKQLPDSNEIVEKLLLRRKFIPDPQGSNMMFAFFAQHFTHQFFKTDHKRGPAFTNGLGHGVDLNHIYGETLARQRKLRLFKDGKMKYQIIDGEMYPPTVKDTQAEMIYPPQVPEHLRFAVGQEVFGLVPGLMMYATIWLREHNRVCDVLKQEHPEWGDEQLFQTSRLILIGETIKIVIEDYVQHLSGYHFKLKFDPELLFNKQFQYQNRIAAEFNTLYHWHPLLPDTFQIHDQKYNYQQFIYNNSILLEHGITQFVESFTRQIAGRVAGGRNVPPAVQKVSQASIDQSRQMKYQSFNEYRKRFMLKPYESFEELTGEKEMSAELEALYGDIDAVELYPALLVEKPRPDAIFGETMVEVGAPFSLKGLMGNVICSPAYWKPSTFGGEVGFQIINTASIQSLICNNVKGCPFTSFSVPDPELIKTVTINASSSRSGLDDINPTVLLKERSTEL
Experimental: as §1

SMILES: CC(C)=CCCC(C)=Cc1ccc(O)cc1 (mixture of isomers) [Compound 1, (E/Z)-4-(2,6-dimethylhepta-1,5-dienyl)phenol]
- CELL VIABILITY ([1]; 48 hours, Tables 1-3): 269 µM
- LD50, cell viability ([1]; mouse, 48 h): 269 µM
- IC50 [2]: 122 µM
- Anti-inflammatory (IC50) COX-2 [3]: Not active

- IC50 [2]: 64 µM
- IC50 [3]: 245 µM
SMILES: CC(C)=CCC/C(C)=C/c1cc(O)cc(O)c1 [Compound 4, (E/Z)-5-(2,6-dimethylhepta-1,5-dienyl)benzene-1,3-diol]
- CELL VIABILITY ([1]; mouse, 48 h): 127 µM

- Anti-inflammatory (IC50) COX-1 [2]: No Inhibition
- IC50 [3]: 72 µM
SMILES: CC(C)=CCCC(C)/C=C/c1ccc(O)cc1 (stereo not drawn) [Compound 5, (E)-4-(3,7-dimethylocta-1,6-dienyl)phenol]
- CELL VIABILITY ([1]; mouse, 48 h): 50 µM

SMILES: CC(C)=CCCC(C)/C=C/c1ccc(O)cc1O (stereo not drawn) [Compound 6, (E)-4-(3,7-dimethylocta-1,6-dienyl) benzene-1,3-diol]
- CELL VIABILITY ([1]; 48 hours, Tables 1-3): 233 µM
- LD50, cell viability ([1]; mouse, 48 h): 233 µM
- IC50 [2]: 74 µM
- IC50 [3]: 164 µM

SMILES: CC(C)=CCCC(C)/C=C/c1cc(O)cc(O)c1 (stereo not drawn) [Compound 7, (E)-5-(3,7-dimethylocta-1,6-dienyl) benzene-1,3-diol]
- CELL VIABILITY ([1]; 48 hours, Tables 1-3): 152 µM
- LD50, cell viability ([1]; mouse, 48 h): 152 µM
- IC50 [2]: 25 µM
- IC50 [3]: 135 µM

SMILES: CC(C)=CCCC(C)C/C=C\c1cc(O)cc(O)c1 (stereo not drawn) [Compound 15, (Z)-5-(4,8-dimethylnona-1,7-dienyl) benzene-1,3-diol]
- CELL VIABILITY ([1]; mouse, 48 h): 269 µM
- IC50 [2]: 122 µM
- Anti-inflammatory (IC50) COX-2 [3]: No Inhibition
